{"source": "patent EP0330874A2", "about": "“Antibacterial and antitumor agents LL-E33288 epsilon-I and LL-E33288-epsilonBr, with processes and intermediates for producing said agents” (AMERICAN CYANAMID COMPANY, priority 1988, dated 1989)", "test_system": "lymphocytic leukemia P388", "assay": "Lymphocytic Leukemia P388 Test", "format": "in vivo, BDFl mice", "settings": "for Median Survival: mice, 30 days observation; for T/C x 100: ratio of survival time treated/control, 125 or over = significant", "from_the_text": "Certain in vivo testing systems and protocols have been developed by the National Cancer Institute for testing compounds to determine their suitability as antineoplastic agents. These have been reported in \"Cancer Chemotherapy Reports\", Part III, Volume 3, No. 2 (1972), Geran, et al. These protocols have established standardized screening tests which are generally followed in the field of testing for antitumor agents. Of these systems, lymphocytic leukemia P388 is particularly significant to the present invention. This neoplasm is utilized for testing as transplantable tumors in mice. Significant antitumor activity shown in this protocol by a percentage increase of mean survival times of the treated(T) animals over the control(C) animals is indicative of similar results in human leukemias and solid tumors.\nThe animals used were BDFl mice, all of one sex, weighing a minimum of 17 g and all within a 3 g weight range. There were 5 or 6 mice per test group. The tumor transplant was by intraperitoneal injection of 0.5 ml of dilute ascitic fluid containing 10⁶ cells of lymphocytic leukemia P388. The test compounds were administered intraperitoneally at a volume of 0.5 ml in 0.2% Klucel in normal saline on days 1, 5 and 9 (relative to tumor inoculation) at the indicated doses. The mice were weighed and survivors recorded on a regular basis for 30 days. The median survival time and the ratio of survival time for treated(T)/control(C) animals were calculated. The positive control compound for LL-E33288ε-I was 1,4-dihydroxy-5,8-bis[[2-(2-hydroxyethylamino)ethyl]amino]anthraquinone, dihydrochloride (U. S. Patent 4,197,249). The positive control compound for dethiomethylγ₁-I was 1,4-bis[2-(2-hydroxyethylamino)ethylamino]-5,8-dihydroxyanthroquinone dihydrochloride, Lederle Laboratories, Pearl River, New York (\"Novantrone\"). The controls were given as an intraperitoneal injections in 0.5 ml of 0.2% Klucel on days 1, 5 and 9 at the indicated doses.\nIf T/C X 100 (%) is 125 or over, the tested compound is considered to have significant anti-tumor activity.", "key": {"[1]": {"settings": "Dose 0.4 mg/kg intraperitoneally on days 1, 5 and 9"}, "[2]": {"settings": "Dose 0.8 mg/kg intraperitoneally on days 1, 5 and 9"}, "[3]": {"settings": "Dose 1.6 mg/kg intraperitoneally on days 1, 5 and 9"}}, "data": [{"smiles": "Cl.Cl.O=C1c2c(O)ccc(O)c2C(=O)c2c(NCCNCCO)ccc(NCCNCCO)c21", "note": "[Positive Control, 1,4-dihydroxy-5,8-bis[[2-(2-hydroxyethylamino)ethyl]amino]anthraquinone, dihydrochloride]", "values": [{"measurement": "Median Survival", "setting": "[1]", "result": 21.5, "unit": "days"}, {"measurement": "T/C x 100", "setting": "[1]", "result": 215, "unit": "%"}, {"measurement": "Median Survival", "setting": "[2]", "result": ">30", "unit": "days"}, {"measurement": "T/C x 100", "setting": "[2]", "result": ">300", "unit": "%"}, {"measurement": "Median Survival", "setting": "[3]", "result": 27, "unit": "days"}, {"measurement": "T/C x 100", "setting": "[3]", "result": 270, "unit": "%"}]}]}
